Test results reported in ChEMBL document CHEMBL1143392, “Synthesis and cyclooxygenase inhibition of various (aryl-1,2,3-triazole-1-yl)-methanesulfonylphenyl derivatives” (Bioorg Med Chem, 2009).

Legend:
[1] = molecular target: Prostaglandin G/H synthase 1 (Homo sapiens, UniProt P23219); experiment: Inhibition of COX1 by enzyme immunoassay
[2] = molecular target: T1, Prostaglandin G/H synthase 2 (Homo sapiens, UniProt P35354); experiment: Inhibition of COX2 by enzyme immunoassay
T1 sequence (P35354 whole entry): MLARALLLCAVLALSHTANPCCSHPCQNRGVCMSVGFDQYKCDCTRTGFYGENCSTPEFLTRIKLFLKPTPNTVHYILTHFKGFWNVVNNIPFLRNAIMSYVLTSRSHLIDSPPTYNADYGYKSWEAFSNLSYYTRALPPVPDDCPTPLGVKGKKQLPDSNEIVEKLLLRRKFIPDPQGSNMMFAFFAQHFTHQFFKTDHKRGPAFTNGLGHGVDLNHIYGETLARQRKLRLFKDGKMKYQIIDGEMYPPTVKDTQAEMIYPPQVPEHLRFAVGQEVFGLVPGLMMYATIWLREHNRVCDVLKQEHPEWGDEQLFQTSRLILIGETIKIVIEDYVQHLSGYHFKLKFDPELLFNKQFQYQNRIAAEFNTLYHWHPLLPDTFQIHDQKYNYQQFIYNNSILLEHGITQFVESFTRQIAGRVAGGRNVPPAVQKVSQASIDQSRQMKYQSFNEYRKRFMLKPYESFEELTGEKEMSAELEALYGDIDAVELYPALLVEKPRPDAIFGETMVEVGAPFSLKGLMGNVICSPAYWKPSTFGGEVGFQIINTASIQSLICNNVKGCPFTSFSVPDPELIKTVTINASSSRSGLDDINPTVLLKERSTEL

[3] = Selectivity index, ratio of IC50 for COX1 to IC50 COX2

Chain of Prostaglandin G/H synthase 1 (P23219 whole entry): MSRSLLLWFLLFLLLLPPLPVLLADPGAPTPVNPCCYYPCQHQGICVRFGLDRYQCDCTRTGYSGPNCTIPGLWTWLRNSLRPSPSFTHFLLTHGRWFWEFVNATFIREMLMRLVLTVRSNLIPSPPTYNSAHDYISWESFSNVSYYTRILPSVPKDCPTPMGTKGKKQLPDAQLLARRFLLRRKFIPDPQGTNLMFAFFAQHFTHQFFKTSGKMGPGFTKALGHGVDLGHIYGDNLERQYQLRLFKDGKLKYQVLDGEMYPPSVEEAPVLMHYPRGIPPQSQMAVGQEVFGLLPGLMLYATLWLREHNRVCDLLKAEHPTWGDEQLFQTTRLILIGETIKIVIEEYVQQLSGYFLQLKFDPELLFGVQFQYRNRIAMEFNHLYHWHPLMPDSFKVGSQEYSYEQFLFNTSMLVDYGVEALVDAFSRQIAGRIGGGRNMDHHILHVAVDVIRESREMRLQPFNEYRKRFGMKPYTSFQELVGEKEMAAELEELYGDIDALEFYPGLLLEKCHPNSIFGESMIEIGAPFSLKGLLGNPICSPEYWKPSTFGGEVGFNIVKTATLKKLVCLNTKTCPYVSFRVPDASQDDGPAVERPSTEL

Q: Which IC50 [1] does the source give for COc1ccc(C2=C(c3ccc(S(C)(=O)=O)cc3)CCC2)cc1 here?
A: 5 µM

Q: For CS(=O)(=O)c1ccc(-n2cc(-c3ccc(F)cc3)nn2)cc1, which IC50 [1] is on record?
A: 12.5 µM

Q: And the IC50 [2]?
A: 210 nM

Q: And the Ratio IC50 [3]?
A: 59

Q: Which IC50 [1] does the source give for COc1ccc(-c2cn(-c3ccc(S(C)(=O)=O)cc3)nn2)cc1 here?
A: 10 µM

Q: What about the IC50 [2] of the same compound?
A: 2500 nM

Q: And the Ratio IC50 [3]?
A: 4

Q: Which IC50 [1] does the source give for Cc1ccc(-c2cnnn2-c2ccc(S(C)(=O)=O)cc2)cc1 here?
A: 0.78 µM

Q: And the IC50 [2]?
A: 120 nM

Q: What about the Ratio IC50 [3] of the same compound?
A: 6.5

Q: What does the source list for Cc1ccc(-c2cn(-c3ccc(S(C)(=O)=O)cc3)nn2)cc1?
A: IC50 [1]: 45 µM; IC50 [2]: 2500 nM; Ratio IC50 [3]: 18

Q: Which IC50 [1] does the source give for CN(C)c1ccc(-c2cnnn2-c2ccc(S(C)(=O)=O)cc2)cc1 here?
A: 0.84 µM

Q: What about the IC50 [2] of the same compound?
A: 360 nM

Q: What about the Ratio IC50 [3] of the same compound?
A: 2.3

Q: Which results are given for CN(C)c1ccc(-c2cn(-c3ccc(S(C)(=O)=O)cc3)nn2)cc1?
A: IC50 [1]: > 100 µM; IC50 [2]: > 10000 nM

Q: Which IC50 [1] does the source give for CS(=O)(=O)c1ccc(-n2nncc2-c2ccccc2)cc1 here?
A: 0.81 µM

Q: What about the IC50 [2] of the same compound?
A: 110 nM

Q: What about the Ratio IC50 [3] of the same compound?
A: 7.5

Q: What does the source list for CS(=O)(=O)c1ccc(-n2nncc2-c2ccc(F)cc2)cc1?
A: IC50 [1]: 0.91 µM; IC50 [2]: 30 nM; Ratio IC50 [3]: 30.3

Q: For CS(=O)(=O)c1ccc(-n2cc(-c3ccc(Cl)cc3)nn2)cc1, which IC50 [1] is on record?
A: 12.2 µM

Q: What about the IC50 [2] of the same compound?
A: 190 nM

Q: And the Ratio IC50 [3]?
A: 64

Q: Which IC50 [1] does the source give for CS(=O)(=O)c1ccc(-n2cc(-c3ccccc3)nn2)cc1 here?
A: 20.8 µM

Q: And the IC50 [2]?
A: 150 nM

Q: What about the Ratio IC50 [3] of the same compound?
A: 139

Q: For COc1ccc(-c2cnnn2-c2ccc(S(C)(=O)=O)cc2)cc1, which IC50 [1] is on record?
A: 0.83 µM

Q: And the IC50 [2]?
A: 170 nM

Q: What about the Ratio IC50 [3] of the same compound?
A: 4.9

Q: Which IC50 [1] does the source give for CS(=O)(=O)c1ccc(-n2nncc2-c2ccc(Cl)cc2)cc1 here?
A: 0.7 µM

Q: And the IC50 [2]?
A: 40 nM

Q: What about the Ratio IC50 [3] of the same compound?
A: 17.5
